Measured values: patent US11696913B2, “Prolonged ectoparasite-controlling agent for animal” (MITSUI CHEMICALS AGRO, INC., priority 2017, dated 2023)

How the values were obtained:
Amblyomma americanum = assay: In vitro contact test with hard ticks (Amblyomma americanum nymphs); details: dose 1 μg/cm^2, 48 h, read-out: acaricidal activity
Experimental: (§1) In Vitro Contact Tests with Adult Hard Ticks
(§2) In vitro contact tests with ticks were conducted with adult males and females of Rhipicephalus sanguineus, Ixodes ricinus, or Dermacentor variabilis, or nymphs of Amblyomma americanum.
(§3) For the coating of the test vials, the test substance was dissolved and diluted in acetone p.a. to the desired concentration. The solution was then homogeneously applied to the inner wall and base of a glass vial by turning and rocking on an orbital shaker until complete evaporation of the solvent. For example, with a 900 ppm solution of test substance, an area-based dose of 5 μg/cm^2 was achieved.
(§4) After the solvent was completely evaporated, 5-10 adult ticks were put in each coated test vial, which was then sealed with a perforated plastic lid and incubated in a horizontal position in the dark at room temperature and ambient humidity (Rhipicephalus sanguineus) or in a climate-controlled cabinet (Ixodes ricinus, Dermacentor variabilis, Amblyomma americanum [21° C., 85% rel. hum.]). Acaricidal activity against the respective tick species was determined after 48 h. For this, ticks were collected to the base of the test vial by gentle knocking, and test vials were then incubated on a hotplate at 45-50° C. for no longer than 5 min. Ticks which remained motionless on the base of the test vial or moved uncoordinated without deliberately climbing up to avoid the heat were considered dead or moribund, respectively.
(§5) A substance was judged to have good acaricidal activity against the respective tick species when at least 80% of ticks were found dead or moribund at a dose of the substance of g/cm^2. An acaricidal activity of 100% means all ticks were dead or moribund. An acaricidal activity of 0% means none of the ticks was found dead or moribund.

[1] = test system: Rhipicephalus (Boophilus) microplus; assay: In vitro injection test with Rhipicephalus (Boophilus) microplus (BOOPMI Inj); details: 168 h, laid fertile eggs after 7 days, read-out: acaricidal activity; for pest or weed control at 0.0008 mg: dose 0.8 μg/animal injected; for pest or weed control at 32 ng: dose 0.032 μg/animal injected; for pest or weed control at 0.00016 mg: dose 0.16 μg/animal injected
Experimental: In Vitro Injection Test with Rhipicephalus (Boophilus) Microplus (BOOPMI Inj)
To produce an appropriate mixture for injection, the test substance was dissolved and diluted in dimethyl sulphoxide to the desired concentration. 1 μl of the test mixture was injected into the abdomen of each of 5 engorged adult female cattle ticks (Rhipicephalus (Boophilus) microplus). The ticks were transferred into petri dishes and maintained in a climate-controlled room [28° C., 85% rel. hum.].
Acaricidal activity against cattle ticks was assessed after 7 days by assessment of laid fertile eggs. […] An acaricidal activity of 100% means that none of the ticks laid eggs or laid eggs were infertile; 0% means that the ticks laid eggs, and all the eggs were fertile.

Ctenocephalides felis [2] = assay: In vitro contact test with fleas; details: read-out: insecticidal activity; for pest or weed control at 0.2 µg/cm2, 0.2 µg/cm2: dose 0.2 μg/cm^2, dead or moribund fleas after 48 h; for pest or weed control at 1 µg/cm2, 1 µg/cm2: dose 1 μg/cm^2, dead or moribund fleas after 48 h
Experimental: In Vitro Contact Tests with Fleas
In vitro contact tests with fleas were conducted with adult male and female cat fleas (Ctenocephalides felis).
To coat the test tubes, the test substance was dissolved and diluted in acetone p.a. to the desired concentration. The solution was then homogeneously applied to the inner wall and base of a glass tube by turning and rocking on an orbital shaker until complete evaporation of the solvent. For example, with a 900 ppm solution of test substance, an area-based dose of 5 μg/cm^2 was achieved.
Upon complete evaporation of the solvent, 5-10 adult cat fleas (Ctenocephalides felis) were added to each coated tube, which was then sealed with a perforated plastic lid and incubated in a horizontal position at room temperature and ambient humidity. After 48 h, insecticidal activity against fleas was determined. For this, fleas were collected to the base of the tube by knocking the tube, and the tube was allowed to stand upright. Fleas which remained motionless at the base or moved in an uncoordinated manner were considered dead or moribund, respectively.
A substance was judged to have good insecticidal activity against Ctenocephalides felis when at least 80% of the fleas were found dead or moribund at a dose of the substance of μg/cm^2. 100% insecticidal activity means that all the fleas were found dead or moribund. 0% insecticidal activity means that no fleas were found dead or moribund.

Ctenocephalides felis [3] = assay: Ctenocephalides felis in-vitro feeding test with fleas (CTECFE oral); details: 48 hours, read-out: insecticidal feeding activity; for pest or weed control at 0.8 ppm: dose 0.8 ppm in citrated cattle blood; for pest or weed control at 4 ppm: dose 4 ppm in citrated cattle blood; for pest or weed control at 0.16 ppm: dose 0.16 ppm in citrated cattle blood
Experimental: Ctenocephalides felis In-Vitro Feeding Test with Fleas (CTECFE Oral)
To prepare a test blood mixture for feeding fleas, the test substance was dissolved in dimethyl sulphoxide and diluted with citrated cattle blood to the desired concentration.
To assemble the test set-up, about 20 unfed adult male and female cat fleas
(Ctenocephalides felis) were placed in a chamber which was closed at the top and bottom with gauze. A metal cylinder was sealed at one end with parafilm membrane, placed with the sealed base onto the chamber, and filled with the test blood mixture, which could be imbibed by the fleas through the parafilm membrane. The assembled test set-up was maintained at about 37° C. After 48 hours, the insecticidal feeding activity against fleas was determined. 100% means that all of the fleas were killed; 0% means that none of the fleas was killed.

Dermacentor variabilis = assay: In vitro contact test with adult hard ticks (Dermacentor variabilis); details: read-out: acaricidal activity; for pest or weed control at 1 µg/cm2, 1 µg/cm2: dose 1 μg/cm^2, 48 h
Experimental: as §1, §2, §3, §4, §5

Rhipicephalus sanguineus = assay: In vitro contact test with adult hard ticks (Rhipicephalus sanguineus); details: read-out: acaricidal activity; for pest or weed control at 0.2 µg/cm2, 0.2 µg/cm2: dose 0.2 μg/cm^2, 48 h; for pest or weed control at 1 µg/cm2, 1 µg/cm2: dose 1 μg/cm^2, 48 h
Experimental: as §1, §2, §3, §4, §5

SMILES	pest or weed control at 0.0008 mg [1] [%]	pest or weed control at 0.2 µg/cm2, 0.2 µg/cm2 (Ctenocephalides felis [2]) [%]	pest or weed control at 1 µg/cm2, 1 µg/cm2 (Ctenocephalides felis [2]) [%]	pest or weed control at 0.8 ppm (Ctenocephalides felis [3]) [%]	pest or weed control at 4 ppm (Ctenocephalides felis [3]) [%]	pest or weed control at 0.00016 mg [1] [%]	further results
O=C(Nc1cccc(C(=O)Nc2c(Br)cc(C(F)(C(F)(F)F)C(F)(F)F)cc2OC(F)(F)F)c1)c1ccc(C(F)(F)F)cc1 [Compound 1]	100						pest or weed control at 1 µg/cm2, 1 µg/cm2 (Amblyomma americanum): 90%
CN(C(=O)c1ccc(C#N)cc1)c1cccc(C(=O)Nc2c(Br)cc(C(F)(C(F)(F)F)C(F)(F)F)cc2C(F)(F)F)c1 [Compound 4]	100	95	95				pest or weed control at 1 µg/cm2, 1 µg/cm2 (Amblyomma americanum): 90%
CN(C(=O)c1ccc(C#N)nc1)c1cccc(C(=O)Nc2c(Br)cc(C(F)(C(F)(F)F)C(F)(F)F)cc2C(F)(F)F)c1 [Compound 6]	100	95	95	95	95		
CN(C(=O)c1ccc(C#N)cc1)c1cccc(C(=O)Nc2c(Br)cc(C(F)(C(F)(F)F)C(F)(F)F)cc2C(F)(F)F)c1F [Compound 17]	100	95	95	95	95	100	pest or weed control at 0.04 µg/cm2, 0.04 µg/cm2 (Ctenocephalides felis [2]; dose 0.04 μg/cm^2, dead or moribund fleas after 48 h): 95%; pest or weed control at 0.2 µg/cm2, 0.2 µg/cm2 (Dermacentor variabilis; dose 0.2 μg/cm^2, 48 h): 90%; pest or weed control at 1 µg/cm2, 1 µg/cm2 (Dermacentor variabilis): 90%; pest or weed control at 0.04 µg/cm2, 0.04 µg/cm2 (Rhipicephalus sanguineus; dose 0.04 μg/cm^2, 48 h): 90%; pest or weed control at 0.2 µg/cm2, 0.2 µg/cm2 (Rhipicephalus sanguineus): 90%; pest or weed control at 1 µg/cm2, 1 µg/cm2 (Rhipicephalus sanguineus): 90%; pest or weed control at 32 ng [1]: 100%; pest or weed control at 0.0064 ppm (Ctenocephalides felis [3]; dose 0.0064 ppm in citrated cattle blood): 95%; pest or weed control at 0.032 ppm (Ctenocephalides felis [3]; dose 0.032 ppm in citrated cattle blood): 95%; pest or weed control at 0.16 ppm (Ctenocephalides felis [3]): 95%
CN(C(=O)c1ccc(C#N)cc1)c1cc(C(=O)Nc2c(Br)cc(C(F)(C(F)(F)F)C(F)(F)F)cc2C(F)(F)F)ccc1F [Compound 8]		95	95	95	95		
CN(C(=O)c1ccc(C#N)cc1)c1cccc(C(=O)Nc2c(I)cc(C(F)(C(F)(F)F)C(F)(F)F)cc2C(F)(F)F)c1 [Compound 20]	100	95	95	95	95	100	pest or weed control at 32 ng [1]: 100%
O=C(Nc1cccc(C(=O)Nc2c(Br)cc(C(F)(C(F)(F)F)C(F)(F)F)cc2OC(F)(F)F)c1)c1ccc(Cl)cc1 [Compound 2]	100						pest or weed control at 1 µg/cm2, 1 µg/cm2 (Amblyomma americanum): 90%
CN(C(=O)c1ccc(S(C)(=O)=O)cc1)c1cccc(C(=O)Nc2c(Br)cc(C(F)(C(F)(F)F)C(F)(F)F)cc2C(F)(F)F)c1 [Compound 7]	100		95		95		
CN(C(=O)c1ccc([N+](=O)[O-])cc1)c1cccc(C(=O)Nc2c(Br)cc(C(F)(C(F)(F)F)C(F)(F)F)cc2C(F)(F)F)c1 [Compound 5]	100	95	95		95	100	pest or weed control at 1 µg/cm2, 1 µg/cm2 (Dermacentor variabilis): 90%
CS(=O)(=O)c1ccc(C(=O)Nc2cccc(C(=O)Nc3c(I)cc(C(F)(C(F)(F)F)C(F)(F)F)cc3C(F)(F)F)c2)c(Cl)c1 [Compound 40]	100			95	95		
CN(C(=O)c1ccc(C#N)cc1)c1cccc(C(=O)Nc2c(Br)cc(C(F)(C(F)(F)F)C(F)(F)F)cc2OC(F)(F)F)c1 [Compound 10]	100	95	95		95	100	pest or weed control at 1 µg/cm2, 1 µg/cm2 (Rhipicephalus sanguineus): 90%
CN(C(=O)c1ccc(C#N)cc1Cl)c1cccc(C(=O)Nc2c(Br)cc(C(F)(C(F)(F)F)C(F)(F)F)cc2C(F)(F)F)c1 [Compound 18]				95	95		
O=C(Nc1c(I)cc(C(F)(C(F)(F)F)C(F)(F)F)cc1C(F)(F)F)c1cccc(NC(=O)c2ccc(Cl)cc2Cl)c1 [Compound 32]	100				95		
CN(C(=O)c1ccc(C#N)cc1F)c1cccc(C(=O)Nc2c(Br)cc(C(F)(C(F)(F)F)C(F)(F)F)cc2C(F)(F)F)c1 [Compound 14]	100	95	95	95	95	100	pest or weed control at 0.2 µg/cm2, 0.2 µg/cm2 (Rhipicephalus sanguineus): 90%; pest or weed control at 1 µg/cm2, 1 µg/cm2 (Rhipicephalus sanguineus): 90%; pest or weed control at 0.16 ppm (Ctenocephalides felis [3]): 95%
O=C(Nc1c(I)cc(C(F)(C(F)(F)F)C(F)(F)F)cc1C(F)(F)F)c1cccc(NC(=O)c2ccc(Cl)cc2Br)c1 [Compound 42]	100			95	95	100	
